# Source: PMC11217419, “TRP14 is the rate-limiting enzyme for intracellular cystine reduction and regulates proteome cysteinylation” (The EMBO Journal, 2024)
# Molecular target: T1, TXDC-17 (C. elegans TRP14) (Caenorhabditis elegans, UniProt Q9BL27)
# T1 construct: recombinant, purified with the same methodologies as the human orthologue
# T1 sequence (Q9BL27 1-132): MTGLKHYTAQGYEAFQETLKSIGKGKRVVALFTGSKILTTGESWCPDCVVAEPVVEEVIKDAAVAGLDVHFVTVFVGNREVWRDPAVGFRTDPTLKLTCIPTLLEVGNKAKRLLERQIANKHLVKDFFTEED
# Test: coupled cystine reduction assay with C. elegans TRXR-1
# Format: biochemical
# Conditions: with C. elegans TRXR-1 as reductase
structure (smiles),measurement,value
N[C@@H](CSSC[C@H](N)C(=O)O)C(=O)O [cystine],coupled cystine reduction assay with C. elegans TRXR-1,"TXDC-17, together with its native reductase, could efficiently reduce cystine in vitro"
